Values of other authors, collected in US20060029556A1, “Aqueous-alcoholic depigmenting gels” (GALDERMA RESEARCH & DEVELOPMENT, S.N.C., priority 2002, published 2006).
Like-named read-outs stand apart in the source and are kept apart here.

In the case of `Oc1ccc(O)cc1` [hydroquinone], the incidence of irritation (hydroquinone concentration 10%) is given as “relatively high”, the incidence of irritation (hydroquinone concentration of 2%) is given as “virtually nonexistent” and the incidence of irritation (hydroquinone preparations with a 5% dose) is given as “reduces greatly”.
